Counter-ions that a name gives are not always drawn. Like-named read-outs stand apart in the source and are kept apart here.
Columns and labels:
[1] = test system: apomorphine induced stereotypies; assay: Block of apomorphine-induced stereotypies in rats (0-3 scale scoring); assay type: in vivo, Male Sprague-Dawley rats; details: for ED50: Rattus norvegicus, 1 h; for Stereotypies ED50: rat, hydrochloride, 60 min
Description: Male Sprague-Dawley rats weighing 225-275 g were used. […] The compounds were injected 60 minutes prior to apomorphine hydrochloride (1 mg/kg) which was injected subcutaneously into the neck. […] Directly after injection, the animals were placed in the cages, one in each cage. Scoring of the stereotypies were performed by two separate methods. The first scoring system was a modified version of the system introduced by Costall and Naylor (1973). […] Chewing, biting and | licking. In the second system the number of animals displaying hyperactivity caused by apomorphine were scored. […] Saline controls were always run simultaneously.

[2] = test system: apomorphine induced hyperactivity; assay: Block of apomorphine-induced hyperactivity in rats (number of animals displaying hyperactivity); assay type: in vivo, Male Sprague-Dawley rats; details: for ED50: Rattus norvegicus, 1 h
Description: Male Sprague-Dawley rats weighing 225-275 g were used. […] The compounds were injected 60 minutes prior to apomorphine hydrochloride (1 mg/kg) which was injected subcutaneously into the neck.
Directly after injection, the animals were placed in the cages, one in each cage. Scoring of the stereotypies were performed by two separate methods. The first scoring system was a modified version of the system introduced by Costall and Naylor (1973). The strength of the stereotypy was scored on a 0-3 scale as follows:
In the second system the number of animals displaying hyperactivity caused by apomorphine were scored. […] Saline controls were always run simultaneously. ED50 's are in the first scoring system (0-3 scale), the doses which reduce the strength of the stereotypies by 50% over the observation period of 60 minutes. ED50 's of the second scoring system are the doses which reduce the number of animals showing hyperactivity by 50% over the observation period of 60 minutes.

[3] = test system: DA receptors in the brain; assay: Apomorphine antagonism in rats (stereotypies and hyperactivity together, results in words); assay type: in vivo, Male Sprague-Dawley rats; details: rat, p.o., Table 3
[4] = experimental animals; cited from earlier work
[5] = in vivo; cited from earlier work
[6] = ip, i.p., 60 min before apomorphine hydrochloride 1 mg/kg s.c., 60 min observation, read-out: Stereotypies ED50
[7] = ip, i.p., 60 min before apomorphine hydrochloride 1 mg/kg s.c., 60 min observation, read-out: Hyperactivity ED50
[8] = po, p.o., same test system, read-out: Stereotypies ED50
[9] = po, p.o., same test system, read-out: Stereotypies ED50 (in parentheses, mg/kg)
[10] = po, p.o., same test system, read-out: Hypractivity ED50
[11] = po, p.o., same test system, read-out: Hypractivity ED50 (in parentheses, mg/kg)
[12] = i.p., 60 min before apomorphine hydrochloride 1 mg/kg s.c., 60 min observation

| Structure (SMILES) | ED50 [1, 6] | ED50 [2, 7] | ED50 [1, 8] | ED50 [1, 9] | ED50 [2, 10] | ED50 [2, 11] | also measured |
| --- | --- | --- | --- | --- | --- | --- | --- |
| CCN1CCCC1CNC(=O)c1c(OC)c(Cl)cc(Cl)c1OC (racemic) [Example 10, N-Ethyl-2-(3,5-dichloro-2,6-dimethoxybenzamidomethyl) pyrrolidine] | 5.8 µmol/kg | 3 µmol/kg |  |  |  |  |  |
| CCN1CCCC1CNC(=O)c1c(OC)c(Br)cc(Br)c1OC (single isomer, unassigned) [Example 13, N-Ethyl-2-(3,5-dibromo-2,6-dimethoxybenzamidomethyl) pyrrolidine hydrochloride] | 3.3 µmol/kg | 0.33 µmol/kg |  |  |  |  |  |
| CCN1CCCC1CNC(=O)c1c(OC)ccc(Cl)c1OC (racemic) [Example 8, N-Ethyl-2-(3-chloro-2,6-dimethoxybenzamidomethyl)pyrrolidine hydrochloride] | 47 µmol/kg | 30 µmol/kg |  |  |  |  |  |
| CCN1CCCC1CNC(=O)c1c(OC)c(Br)cc(Br)c1OC.Cl (racemic) [Example 9, N-Ethyl-2-(3,5-dibromo-2,6-dimethoxybenzamidomethyl) pyrrolidine hydrochloride] | 5.3 µmol/kg | 1.8 µmol/kg | 8.2 µmol/kg | 4 mg/kg | 5.5 µmol/kg | 2.7 mg/kg |  |
| CCN1CCCC1CNC(=O)c1c(OC)ccc(Br)c1OC.Cl (single isomer, unassigned) [Example 15, N-Ethyl-2-(3-bromo-2,6-dimethoxybenzamidomethyl) pyrrolidine hydrochloride] |  |  |  |  |  |  | Stereotypies ED50 [1, 12]: > 196 µmol/kg; Hyperactivity ED50 ([2]; rat, i.p., 60 min before apomorphine hydrochloride 1 mg/kg s.c., 60 min observation, hydrochloride, 60 min): ~ 123 μmol/kg |
| CCN1CCCC1CNC(=O)c1c(OC)c(Cl)cc(Br)c1OC (racemic) [Example 11, N-Ethyl-2-(3-bromo-5-chloro-2,6-dimethoxybenzamidomethyl) pyrrolidine] | 6.2 µmol/kg | 3.9 µmol/kg |  |  |  |  |  |
| CCN1CCCC1CNC(=O)c1c(OC)ccc(Br)c1OC.Cl (racemic) [Example 7, N-Ethyl-2-(3-bromo-2,6-dimethoxybenzamidomethyl)pyrrolidine hydrochloride] | 23 µmol/kg | 11 µmol/kg | 47 µmol/kg | 19 mg/kg | 17 µmol/kg | 7 mg/kg |  |
| CCN1CCCC1CNC(=O)c1c(OC)c(Br)cc(Br)c1OC (single isomer, unassigned) [Example 12, N-Ethyl-2-(3,5-dibromo-2,6-dimethoxybenzamidomethyl) pyrrolidine] | > 178 µmol/kg | ~11 µmol/kg |  |  |  |  |  |
| CCN1CCCC1CNC(=O)c1c(OC)ccc(Br)c1OC.Cl (single isomer, unassigned) [Example 14, N-Ethyl-2-(3-bromo-2,6-dimethoxybenzamidomethyl) pyrrolidine hydrochloride] |  |  |  |  |  |  | Stereotypies ED50 [1, 12]: 5.6 µmol/kg |
| CCN1CCCC1CNC(=O)c1cc(S(N)(=O)=O)ccc1OC (stereo not shown) [Sulpiride, reference compound] | 293 µmol/kg | 50 µmol/kg | > 586 µmol/kg | > 200 mg/kg | > 586 µmol/kg | > 200 mg/kg | activity after oral administration [3]: lost all activity; catalepsy [4]: weak catalepsy; extrapyramidal side effects [5]: weak extrapyramidal side effects |
